Here are results for three compounds from US5169854A, “N-substituted-furylalkenyl hydroxamic acid and N-hydroxyurea compounds having lipoxygenase inhibitory activity” (Abbott Laboratories, priority 1992, dated 1992).

One test deals with T1, 5-Lipoxygenase (Homo sapiens, UniProt P09917).
T1 sequence (P09917 1-674): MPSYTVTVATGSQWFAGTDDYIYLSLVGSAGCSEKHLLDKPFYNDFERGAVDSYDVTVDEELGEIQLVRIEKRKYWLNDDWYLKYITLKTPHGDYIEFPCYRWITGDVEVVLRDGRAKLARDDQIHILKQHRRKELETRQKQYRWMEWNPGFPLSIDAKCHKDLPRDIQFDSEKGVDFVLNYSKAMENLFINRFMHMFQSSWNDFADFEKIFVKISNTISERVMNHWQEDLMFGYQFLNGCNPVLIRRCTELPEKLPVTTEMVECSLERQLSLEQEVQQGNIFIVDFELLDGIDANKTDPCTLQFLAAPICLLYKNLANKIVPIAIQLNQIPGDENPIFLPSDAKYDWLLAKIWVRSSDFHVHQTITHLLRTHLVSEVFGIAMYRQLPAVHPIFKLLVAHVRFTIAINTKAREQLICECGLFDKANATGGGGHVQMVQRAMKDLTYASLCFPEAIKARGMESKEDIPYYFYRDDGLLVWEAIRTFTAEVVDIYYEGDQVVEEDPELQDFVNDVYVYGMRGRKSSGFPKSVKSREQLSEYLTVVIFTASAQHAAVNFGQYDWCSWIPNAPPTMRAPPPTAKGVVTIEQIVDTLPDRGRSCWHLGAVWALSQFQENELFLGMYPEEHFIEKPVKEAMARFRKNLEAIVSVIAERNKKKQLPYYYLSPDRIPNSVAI
As to the kind of experiment: Inhibition of calcium ionophore A23187-induced LTB4 biosynthesis in human whole blood (5-Lipoxygenase Inhibitory Activity). It counts as cell-based. Also noted: endogenous in cells; host or cells: human heparinized whole blood (blood leukocytes). The method, then: Inhibition of leukotriene biosynthesis was evaluated in an assay, involving calcium ionophore-induced LTB4 biosynthesis expressed human whole blood. Human heparinized whole blood was preincubated with test compounds or vehicle for 15 min at 37° C. followed by calcium ionophore A23187 challenge (final concentration of 8.3 μM) and the reaction terminated after 30 min by adding two volumes of methanol containing prostaglandin B2 as an internal recovery standard. The methanol extract was analyzed for LTB4 using a commercially available radioimmunoassay.

The subject of the next test is Leukotriene Biosynthesis. The test can be described thus: Inhibition of leukotriene biosynthesis in vivo after oral administration, rat peritoneal anaphylaxis model. Conditions: oral gavage 100 μmol/kg, one hour prior to antigen challenge, peritoneal fluid leukotrienes 15 min after challenge. The method, then:
Inhibition of the biosynthesis of leuktrienes in vivo after oral administration of compound was determined using a rat peritoneal anaphylaxis model in a similar manner as that described by Young and coworkers (Young, P. R.; Dyer, R. D.; Carter, G. W. Fed. Proc., Fed. Am. Soc. Exp. Biol. 1985 (44), 1185). In this model rats were injected intraperitoneally (ip) with rabbit antibody to bovine serum albumin (BSA) and three hours later injected ip with BSA to induce an antgen-antibody response. Rats were sacrificed 15 minutes after this challenge and the peritoneal fluids were collected and analyzed for leukotriene levels. Test compounds were administered by gavage one hour prior to the antigen challenge. Percent inhibition values were determined by comparing the treatment group to the mean of the control group.

Take “Z-N-[4-(5-(4 -fluorophenoxy)-2-furanyl)-2-fluorobut-3-en-2-yl]-N-hydroxyurea [Example 3]”: the “5-Lipoxygenase Inhibitory Activity, percent inhibition” value at 5-Lipoxygenase (at 0.39 (10^-6 M), human whole blood LTB4) was 77%.
Consider `CC(/C=C/c1ccc(Oc2ccc(F)cc2)o1)N(O)C(N)=O` (stereo not shown) [Example 1, E-N-[4-(5-(4-Fluorophenoxy)-2-furanyl)but-3-en-2-yl]-N-hydroxyurea], for which the “Percent Inhibition of Leukotriene Biosynthesis at an Oral Dose of 100 μmol/kg” value in the test with Leukotriene Biosynthesis came to 98%. The IC50 at 5-Lipoxygenase (human heparinized whole blood, LTB4 by radioimmunoassay, A23187 8.3 μM, 15 min preincubation at 37° C.) was determined as 160 nM.
With `NC(=O)N(O)CC=Cc1ccc(Oc2ccccc2)o1` [Example 2, N-hydroxy-N-[3-(5-phenoxyfur-2-yl)prop-2-enyl]urea], in the test on Leukotriene Biosynthesis, the “Percent Inhibition of Leukotriene Biosynthesis at an Oral Dose of 100 μmol/kg” value is 99%.
